Experimental data reported in PMC5727211, “Development of Erasin: a chromone-based STAT3 inhibitor which induces apoptosis in Erlotinib-resistant lung cancer cells” (Scientific Reports, 2017).

Tests used:
STAT1 SH2 domain = target: T1, STAT1 SH2 domain (Homo sapiens, UniProt P42224); assay: FP-based competitive binding assay, STAT1 SH2 domain; conditions: mean ± s.d., three experiments
T1 sequence (P42224 1-750): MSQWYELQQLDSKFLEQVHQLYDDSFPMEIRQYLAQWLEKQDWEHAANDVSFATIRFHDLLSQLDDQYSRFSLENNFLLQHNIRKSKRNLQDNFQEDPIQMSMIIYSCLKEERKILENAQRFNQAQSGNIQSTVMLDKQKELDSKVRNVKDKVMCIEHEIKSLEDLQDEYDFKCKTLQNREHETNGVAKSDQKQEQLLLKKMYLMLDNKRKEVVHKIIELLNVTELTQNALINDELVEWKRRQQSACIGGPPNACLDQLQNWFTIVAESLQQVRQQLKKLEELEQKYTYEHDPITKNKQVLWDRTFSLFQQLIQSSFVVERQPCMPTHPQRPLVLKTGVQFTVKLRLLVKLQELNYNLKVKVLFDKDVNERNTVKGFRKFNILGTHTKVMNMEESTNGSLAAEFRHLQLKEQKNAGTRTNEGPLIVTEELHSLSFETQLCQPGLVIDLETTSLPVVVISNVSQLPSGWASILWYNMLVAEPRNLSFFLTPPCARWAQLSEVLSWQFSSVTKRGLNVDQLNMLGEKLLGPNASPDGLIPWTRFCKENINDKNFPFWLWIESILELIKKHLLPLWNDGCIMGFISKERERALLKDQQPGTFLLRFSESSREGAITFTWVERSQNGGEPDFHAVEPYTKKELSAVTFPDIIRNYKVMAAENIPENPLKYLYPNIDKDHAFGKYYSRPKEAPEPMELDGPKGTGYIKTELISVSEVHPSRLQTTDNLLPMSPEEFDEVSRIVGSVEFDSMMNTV
Experimental: (§1) The STAT family display a high degree of homology. […] Vilsmeyer-Haack formylation of 2-hydroxy acetophenones led to 3-formyl chromones, which were subsequently converted to the acyl hydrazones by reaction with hydrazides (Fig. 1). The target molecules were tested for their abilities to inhibit binding of fluorophore-labeled peptides to the SH2 domains of STAT1[24], STAT3[25], and STAT5b[26] in assays based on fluorescence polarization (FP). The more distantly related SH2 domain of the tyrosine kinase Lck served as additional specificity control[27],[28].
(§2) Assays were performed essentially as described. In brief, protein was incubated with the test compounds for 1 h at room temperature at the following protein concentrations: STAT1: 400 nM, STAT3: 210 nM, STAT5b: 300 nM, Lck SH2: 35 nM. Subsequently, the corresponding fluorophore-labeled peptide was added: STAT1: (5-carboxyfluorescein)-GpYDKPHVL-OH, derived from the interferon-γ receptor[24]; STAT3: (5-carboxyfluorescein)-GpYLPQTV-NH2, derived from the gp130 subunit of the IL-6 receptor[25]; STAT5b: (5-carboxyfluorescein)-GpYLVLDKW-OH, derived from the erythropoietin receptor[26]; Lck SH2: (5-carboxyfluorescein)-GpYEEIP-OH, derived from the middle-T antigen. After a further hour of incubation, fluorescence polarization was measured in a plate reader (Tecan Infinite F500). Apparent IC50 data shown in Tables 1, 2, and S1 and the inhibition curves shown in Fig. 2a correspond to this time point. The majority of the pipetting work was carried out using a Biomek FXp workstation (Beckman-Coulter). Buffer composition: 10 mM Tris pH 8.0, 50 mM NaCl, 1 mM EDTA, 1 mM dithiothreitol (DTT), 0.1% Nonidet P-40, and 2% DMSO.

Lck SH2 = target: T2, Lck SH2 (Homo sapiens, UniProt P06239); assay: FP-based competitive binding assay, Lck SH2 domain; conditions: at 80 µM
T2 construct: STAT1: 400 nM, STAT3: 210 nM, STAT5b: 300 nM, Lck SH2: 35 nM
Experimental: as §1, §2
Supplementary Figures and Table
No Structure app. IC50 [µM] or
Supplementary Table S1: Activities of test compounds in fluorescence polarization assays against the
SH2 domains of Lck. See the Supporting Methods for details. […]

[1] = system: Erlotinib-resistant HCC-827 cells; assay: Apoptosis assay (Annexin V/7-AAD flow cytometry), Erlotinib-resistant HCC-827 cells; assay type: cell-based, human; conditions: 24 h
Experimental: Afterwards, the cell culture supernatant from each well was collected. […] The supernatants were then returned to each well to neutralize the Accutase solution and the cells were centrifuged at 3000 rpm, at 4 °C for 5 min. The cell pellets were washed twice with cold PBS and centrifuged again. […] Cells were resuspended in 1 x binding buffer and incubated with PE Annexin V and 7-AAD at 4 °C for 30 min. Apoptosis was measured using an LSR II flow cytometer (BD Bioscience). Experiments were carried out in at least triplicate. […]

STAT5b SH2 domain = target: T3, STAT5b SH2 domain (Homo sapiens, UniProt P51692); assay: FP-based competitive binding assay, STAT5b SH2 domain; conditions: at 80 µM, mean ± s.d., three experiments
T3 sequence (P51692 1-787): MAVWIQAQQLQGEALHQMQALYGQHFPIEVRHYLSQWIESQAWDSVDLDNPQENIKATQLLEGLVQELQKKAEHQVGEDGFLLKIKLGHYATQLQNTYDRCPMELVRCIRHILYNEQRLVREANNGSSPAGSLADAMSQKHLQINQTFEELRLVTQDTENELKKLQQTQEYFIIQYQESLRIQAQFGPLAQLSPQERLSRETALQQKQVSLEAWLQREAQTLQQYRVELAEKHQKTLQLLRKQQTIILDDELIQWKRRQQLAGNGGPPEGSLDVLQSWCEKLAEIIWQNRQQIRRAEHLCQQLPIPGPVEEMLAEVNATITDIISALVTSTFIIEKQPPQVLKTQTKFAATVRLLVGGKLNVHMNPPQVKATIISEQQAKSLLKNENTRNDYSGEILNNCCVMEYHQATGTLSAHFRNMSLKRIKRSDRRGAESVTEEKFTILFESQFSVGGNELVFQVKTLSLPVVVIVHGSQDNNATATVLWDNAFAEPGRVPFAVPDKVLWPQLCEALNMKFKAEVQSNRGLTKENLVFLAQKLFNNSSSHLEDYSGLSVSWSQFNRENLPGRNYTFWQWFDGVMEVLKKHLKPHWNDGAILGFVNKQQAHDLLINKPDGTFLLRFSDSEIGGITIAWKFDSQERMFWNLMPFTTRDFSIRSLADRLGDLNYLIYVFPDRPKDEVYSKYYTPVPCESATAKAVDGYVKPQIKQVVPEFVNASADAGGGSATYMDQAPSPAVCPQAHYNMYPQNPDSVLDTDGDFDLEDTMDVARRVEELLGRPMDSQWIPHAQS
Experimental: as §1, §2

T2 sequence (P06239 127-224 limits assumed): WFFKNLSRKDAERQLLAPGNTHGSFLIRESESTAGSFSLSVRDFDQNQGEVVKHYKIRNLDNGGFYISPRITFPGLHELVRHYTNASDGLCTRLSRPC

IC50 (STAT1 SH2 domain; 1 h with protein, then 1 h with peptide, read-out: STAT1 app. IC50) [µM] | Lck inhibition (Lck SH2) | inhibition at 80 µM (STAT5b SH2 domain) [%] | inhibition at 80 µM (STAT1 SH2 domain; at 80 µM) [%] | STAT5b inhibition (STAT5b SH2 domain) | SMILES | increase in rate of apoptosis relative to DMSO control [1]
24 ± 4 | no inhibition | 32 ± 2 |  |  | CC(C)(C)c1ccc2occ(/C=N/NC(=O)c3cccnc3)c(=O)c2c1 [Compound 8] | equally effective
 | no inhibition |  | 36 ± 4 | no inhibition at 80 µM | CCC(C)(C)c1ccc2occ(/C=N/NC(=O)c3cccnc3)c(=O)c2c1 [Compound 9] | did not increase the apoptotic rate
